Here are results for 20 compounds from patent US9850245B2 (Merck Sharp & Dohme Corp., priority 2014, dated 2017).

The experiment concerns the target ROMK (Homo sapiens (Human), UniProt P48048). In words: Thallium Flux Assay. Type of experiment: cell-based. The procedure: A Thallium Flux Assay was performed on the compounds of the Examples. This assay has been described previously; see, e.g., PCT Published Application WO 2013/062900.

Chain of ROMK (P48048 whole entry): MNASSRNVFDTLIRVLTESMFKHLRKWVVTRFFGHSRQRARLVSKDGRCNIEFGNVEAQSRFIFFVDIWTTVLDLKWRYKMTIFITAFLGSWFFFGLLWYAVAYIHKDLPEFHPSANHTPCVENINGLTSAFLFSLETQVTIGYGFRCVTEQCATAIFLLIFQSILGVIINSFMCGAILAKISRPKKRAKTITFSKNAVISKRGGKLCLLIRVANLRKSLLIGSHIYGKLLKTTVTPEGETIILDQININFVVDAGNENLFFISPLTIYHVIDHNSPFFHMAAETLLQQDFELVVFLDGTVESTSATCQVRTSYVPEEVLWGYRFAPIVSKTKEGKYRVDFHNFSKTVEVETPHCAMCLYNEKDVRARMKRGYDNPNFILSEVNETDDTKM

As to `CC1=C(N2CCOC3(CCN(C[C@@H](F)c4ccc(-n5cnnn5)nc4)CC3)C2=O)COC1=O` [Example 56, (S)-9-(2-(6-(1H-tetrazol-1-yl)pyridin-3-yl)-2-fluoroethyl)-4-(4-methyl-5-oxo-2,5-dihydrofuran-3-yl)-1-oxa-4,9-diazaspiro[5.5]undecan-5-one], the 50% inhibitory concentration (IC50) stood at 49 nM.
For the compound `Cc1nc(-n2cnnn2)ccc1C(O)CN1CCC2(CC1)CN(C1=CC(=O)OC1)C(=O)O2` (single isomer, unassigned) [Example 17, 8-(2-hydroxy-2-(2-methyl-6-(1H-tetrazol-1-yl)pyridin-3-yl)ethyl)-3-(5-oxo-2,5-dihydrofuran-3-yl)-1-oxa-3,8-diazaspiro[4.5]decan-2-one], the IC50 was 468 nM.
As for `CC1=C(N2CCN(C)C3(CCN(CC(O)c4ccc(-n5cnnn5)nc4C)CC3)C2=O)COC1=O` (single isomer, unassigned) [Example 35B, 9-(2-hydroxy-2-(2-methyl-6-(1H-tetrazol-1-yl)pyridin-3-yl)ethyl)-1-methyl-4-(4-methyl-5-oxo-2,5-dihydrofuran-3-yl)-1,4,9-triazaspiro[5.5]undecan-5-one], the figure is 144 nM; as for `CC1COC2(CCN(C[C@@H](O)c3ccc(-n4cnnn4)nc3)CC2)C(=O)N1C1=CC(=O)OC1` (single isomer, unassigned) [Example 13A], 230 nM; as for `CC1=C(N2CCOC3(CCN(CC(O)c4ccc(-n5cnnn5)cc4C)CC3)C2)COC1=O` (single isomer, unassigned) [Example 31A, 4-(9-(2-hydroxy-2-(2-methyl-4-(1H-tetrazol-1-yl)phenyl)ethyl)-1-oxa-4,9-diazaspiro[5.5]undecan-4-yl)-3-methylfuran-2(5H)-one], 126 nM.
The compound `CC1=C(N2CCNC3(CCN(CC(O)c4cnc(-n5cnnn5)cn4)CC3)C2=O)COC1=O` (single isomer, unassigned) [Example 3B, 9-(2-(5-(1H-tetrazol-1-yl)pyrazin-2-yl)-2-hydroxyethyl)-4-(4-methyl-5-oxo-2,5-dihydrofuran-3-yl)-1,4,9-triazaspiro[5.5]undecan-5-one] had an IC50 of 142 nM.
In turn, `CC1=C(N2CCOC3(CC4CCC(C3)N4C[C@H](O)c3ccc(-n4cnnn4)nc3)C2=O)COC1=O` (stereo partly drawn) [Example 47, (1R,2′R,5S)-8-((R)-2-(6-(1H-tetrazol-1-yl)pyridin-3-yl)-2-hydroxyethyl)-4′-(4-methyl-5-oxo-2,5-dihydrofuran-3-yl)-8-azaspiro[bicyclo[3.2.1]octane-3,2′-morpholin]-3′-one] registered a half-inhibitory concentration (IC50) of 9.57 nM.
As for `CC1=C(N2CCOC3(CCN(CC(O)c4cnc(-n5cnnn5)nc4)CC3)C2=O)COC1=O` (single isomer, unassigned) [Example 46B, 9-(2-(2-(1H-tetrazol-1-yl)pyrimidin-5-yl)-2-hydroxyethyl)-4-(4-methyl-5-oxo-2,5-dihydrofuran-3-yl)-1-oxa-4,9-diazaspiro[5.5]undecan-5-one], the figure is 58.1 nM.
`Cc1nc(-n2cnnn2)ccc1C(O)CN1CCC2(CC1)CCN(C1=CC(=O)OC1)C(=O)O2` (single isomer, unassigned) [Example 27, 9-(2-hydroxy-2-(2-methyl-6-(1H-tetrazol-1-yl)pyridin-3-yl)ethyl)-3-(5-oxo-2,5-dihydrofuran-3-yl)-1-oxa-3,9-diazaspiro[5.5]undecan-2-one] showed a half-inhibitory concentration (IC50) of 65.5 nM.
In turn, `CC1=C(N2CCOC3(CCN(CC(O)c4cnc(-n5cnnn5)cn4)CC3)CC2)COC1=O` (single isomer, unassigned) [Example 40, 4-(3-(2-(5-(1H-tetrazol-1-yl)pyrazin-2-yl)-2-hydroxyethyl)-7-oxa-3,10-diazaspiro[5.6]dodecan-10-yl)-3-methylfuran-2(5H)-one] registered an IC50 of 118 nM.
Turning to `O=C1C=C(N2CCOC3(CCN(C[C@H](O)c4ccc(-n5cnnn5)nc4)CC3)C2=O)CO1` [Example 12, (R)-9-(2-(6-(1H-tetrazol-1-yl)pyridin-3-yl)-2-hydroxyethyl)-4-(5-oxo-2,5-dihydrofuran-3-yl)-1-oxa-4,9-diazaspiro[5.5]undecan-5-one], the IC50 turned out to be 161 nM.
Compound `CC1=C(N2CCCOC3(CCN(CC(O)c4ccc(-n5cnnn5)nc4C)CC3)C2=O)COC1=O` (single isomer, unassigned) [Example 38, 3-(2-hydroxy-2-(2-methyl-6-(1H-tetrazol-1-yl)pyridin-3-yl)ethyl)-11-(4-methyl-5-oxo-2,5-dihydrofuran-3-yl)-7-oxa-3,11-diazaspiro[5.6]dodecan-12-one] displayed a concentration for half-maximal inhibition (IC50) of 526 nM.
As for `CC1=C(N2CCOC3(CCN(CC(O)c4cnc(-n5cnnn5)cn4)CC3)C2=O)COC1=O` (single isomer, unassigned) [Example 18B, 9-(2-(5-(1H-tetrazol-1-yl)pyrazin-2-yl)-2-hydroxyethyl)-4-(4-methyl-5-oxo-2,5-dihydrofuran-3-yl)-1-oxa-4,9-diazaspiro[5.5]undecan-5-one], the figure is 110 nM.
Take `CC1=C(N2CCOC3(CCN(CCc4ccc5c(c4C)COC5=O)CC3)C2=O)COC1=O` [Example 49, 9-(2-(4-methyl-1-oxo-1,3-dihydroisobenzofuran-5-yl)ethyl)-4-(4-methyl-5-oxo-2,5-dihydrofuran-3-yl)-1-oxa-4,9-diazaspiro[5.5]undecan-5-one]: the IC50 is 52.4 nM.
In turn, `CC1=C(N2CCOC3(CC4CCC(C3)N4CC(O)c3cnc(-n4cnnn4)cn3)C2=O)COC1=O` (single isomer, unassigned) [Example 44] showed an IC50 of 478 nM.
The compound `CC1=C(N2CCOC3(CCN(CC(O)c4ccc(-n5cnnn5)cn4)CC3)C2=O)COC1=O` (single isomer, unassigned) [Example 43, 9-(2-(5-(1H-tetrazol-1-yl)pyridin-2-yl)-2-hydroxyethyl)-4-(4-methyl-5-oxo-2,5-dihydrofuran-3-yl)-1-oxa-4,9-diazaspiro[5.5]undecan-5-one] displayed an IC50 of 37.2 nM.
As for `COc1cc(-n2cnnn2)ccc1C(O)CN1CCC2(CC1)CN(C1=C(C)C(=O)OC1)CCO2` (single isomer, unassigned) [Example 33A, 4-(9-(2-hydroxy-2-(2-methoxy-4-(1H-tetrazol-1-yl)phenyl)ethyl)-1-oxa-4,9-diazaspiro[5.5]undecan-4-yl)-3-methylfuran-2(5H)-one], the figure is 30.5 nM; as for `CC1=C(N2CCNC3(CCN(CC(O)c4ccc(-n5cnnn5)nc4C)CC3)C2=O)COC1=O` (single isomer, unassigned) [Example 2B, 9-(2-hydroxy-2-(2-methyl-6-(1H-tetrazol-1-yl)pyridin-3-yl)ethyl)-4-(4-methyl-5-oxo-2,5-dihydrofuran-3-yl)-1,4,9-triazaspiro[5.5]undecan-5-one], 56.2 nM; as for `CC1=C(N2CCOC3(CCN(CC(O)c4cnc(-n5cnnn5)cn4)CC3)C2)COC1=O` (single isomer, unassigned) [Example 48B, 4-(9-(2-(5-(1H-tetrazol-1-yl)pyrazin-2-yl)-2-hydroxyethyl)-1-oxa-4,9-diazaspiro[5.5]undecan-4-yl)-3-methylfuran-2(5H)-one], 245 nM.
For `COc1cc(-n2cnnn2)ccc1C(O)CN1CCC2(CC1)CN(C1=C(C)C(=O)OC1)CCO2` (single isomer, unassigned) [Example 33B, 4-(9-(2-hydroxy-2-(2-methoxy-4-(1H-tetrazol-1-yl)phenyl)ethyl)-1-oxa-4,9-diazaspiro[5.5]undecan-4-yl)-3-methylfuran-2(5H)-one], the IC50 came out at 91.9 nM.
